Experimental findings from US11254668B2, “Pyrazolo[1,5-A]pyrazin-4-yl and related derivatives” (Pfizer Inc., priority 2017, dated 2022) are described below.

SMILES strings stand for the structures. Read-outs that look alike come from different tables or passages of the source.

What all share (type): biochemical
Assay [1] has as its target JAK1 (Homo sapiens (Human), UniProt P23458). The assay can be described thus: JAK Caliper Enzyme Assay at 1 mM ATP, JAK1. On the procedure:
(§1) Compounds of the invention were evaluated by in vitro methods to determine their respective ability to inhibit the JAK kinases (TYK2, JAK1, JAK2, JAK3).
(§2) The human JAK inhibitory activity was determined by using a microfluidic assay to monitor phosphorylation of a synthetic peptide by the recombinant human kinase domain of each of the four members of the JAK family, JAK1, JAK2, JAK3 and TYK2. […] Each assay condition was optimized for enzyme concentration and room temperature incubation time to obtain a conversion rate of 20% to 30% phosphorylated peptide product. Reactions were terminated by the addition of stop buffer containing EDTA. Utilizing the LabChip 3000 mobility shift technology (Caliper Life Science), each assay reaction was sampled to determine the level of phosphorylation. This technology is separation-based, allowing direct detection of fluorescently labeled substrates and products. Separations are controlled by a combination of vacuum pressure and electric field strength optimized for each peptide substrate.
(§3) JAK Caliper Enzyme Assay at 1mM ATP
(§4) Compounds were added to a 384-well plate.
(§5) The data was collected using the HTS Well Analyzer software from Caliper Life Sciences. The data output for data analysis is the percent product converted calculated on peak height (Equation 1). % product converted=100*((product)/(product+substrate)) Equation 1: […]
(§6) The percent effect at each compound concentration was calculated based on the positive and negative control well contained within each assay plate (Equation 2). […] The negative control wells contained DMSO alone (at the same concentration as the compound wells) that was used to set the baseline activity in the assay (i.e., uninhibited JAK1, JAK2, JAK3 or TYK2). % effect=100*([…](positive control-negative control)) Equation 2: […]
(§7) The percent effect was plotted against the compound concentration compound.

Assay [2] addresses TYK2 (Homo sapiens (Human), UniProt P29597). The assay can be described thus: JAK Caliper Enzyme Assay at 1 mM ATP, TYK2. Here is the method: as §1, §2, §3, §4, §5, §6, §7
Assay [3] deals with JAK3 (Homo sapiens (Human), UniProt P52333). In words: JAK Caliper Enzyme Assay at 1 mM ATP, JAK3. Here is the method:
as §1, §2, §3, §4, §5, §6, §7

Sequence of TYK2 (P29597 897-1176): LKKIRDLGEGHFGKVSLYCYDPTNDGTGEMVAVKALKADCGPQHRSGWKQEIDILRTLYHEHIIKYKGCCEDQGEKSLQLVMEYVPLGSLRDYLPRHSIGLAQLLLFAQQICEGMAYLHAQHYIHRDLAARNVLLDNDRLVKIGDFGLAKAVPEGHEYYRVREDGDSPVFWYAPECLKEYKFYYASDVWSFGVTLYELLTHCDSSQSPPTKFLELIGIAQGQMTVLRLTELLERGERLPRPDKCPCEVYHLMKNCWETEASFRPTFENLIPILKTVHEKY
Sequence of JAK3 (P52333 822-1111): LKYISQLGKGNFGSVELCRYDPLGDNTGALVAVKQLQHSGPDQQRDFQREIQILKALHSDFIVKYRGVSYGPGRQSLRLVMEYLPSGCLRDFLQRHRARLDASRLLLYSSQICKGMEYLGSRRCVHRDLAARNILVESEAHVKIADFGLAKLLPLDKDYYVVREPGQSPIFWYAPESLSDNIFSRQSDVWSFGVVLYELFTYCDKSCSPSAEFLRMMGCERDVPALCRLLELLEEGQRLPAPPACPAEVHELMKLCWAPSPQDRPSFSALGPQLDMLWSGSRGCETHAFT
Sequence of JAK1 (P23458 875-1153): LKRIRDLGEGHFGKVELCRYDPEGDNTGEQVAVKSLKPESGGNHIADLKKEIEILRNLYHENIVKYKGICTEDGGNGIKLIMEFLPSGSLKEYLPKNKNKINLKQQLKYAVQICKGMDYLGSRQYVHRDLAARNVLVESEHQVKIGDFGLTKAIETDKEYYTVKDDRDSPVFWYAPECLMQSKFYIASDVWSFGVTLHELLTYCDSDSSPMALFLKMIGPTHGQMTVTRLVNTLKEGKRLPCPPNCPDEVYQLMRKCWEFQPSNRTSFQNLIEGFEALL

Usually IC50 stands for the midpoint of a concentration-inhibition curve. `N#CC[C@]1(n2cc(-c3nc(-c4cnn(CCO)c4)cc4ncccc34)cn2)C[C@@H](C#N)C1` [Example 6, cis-3-(cyanomethyl)-3-(4-{7-[1-(2-hydroxyethyl)-1H-pyrazol-4-yl]-1,6-naphthyridin-5-yl}-1H-pyrazol-1-yl)cyclobutanecarbonitrile]: the IC50 in assay [1] was found to be 21 nM; in assay [2] it was 15 nM; in assay [3] it was 1.12 µM.
In the same order, the values of `N#CC[C@]1(n2cc(-c3nc(-c4cnn(CCO)c4)cc4ncccc34)cn2)C[C@H](C#N)C1` [Example 7, trans-3-(cyanomethyl)-3-(4-{7-[1-(2-hydroxyethyl)-1H-pyrazol-4-yl]-1,6-naphthyridin-5-yl}-1H-pyrazol-1-yl)cyclobutanecarbonitrile] are 189 nM, 89 nM and more than 10 µM.
On the same counts, the results for `N#CCC1(n2ccc(-c3nc(-c4ccn[nH]4)cc4ncccc34)n2)CN(S(=O)(=O)C2CC2)C1` [Example 18, [1-(cyclopropylsulfonyl)-3-{3-[7-(1H-pyrazol-5-yl)-1,6-naphthyridin-5-yl]-1H-pyrazol-1-yl}azetidin-3-yl]acetonitrile] are 451 nM, 20 nM and more than 10 µM.
In the same order, the values of `CC(=O)N(C)C1CC(CC#N)(n2ccc(-c3nc(-c4cc[nH]n4)cc4ncccc34)n2)C1` (stereo not drawn) [Example 33, N-[trans-3-(cyanomethyl)-3-{3-[7-(1H-pyrazol-3-yl)-1,6-naphthyridin-5-yl]-pyrazol-1-yl}cyclobutyl]-N-methylacetamide] are 5700 nM, 850 nM and more than 10 µM.
For the compound `CC(=O)N(C)[C@H]1C[C@](CC#N)(n2ccc(-c3nc(-c4cc[nH]n4)cc4ncccc34)n2)C1` [Example 34, N-[cis-3-(cyanomethyl)-3-{3-[7-(1H-pyrazol-3-yl)-1,6-naphthyridin-5-yl]-pyrazol-1-yl}cyclobutyl]-N-methylacetamide], the values for the IC50 in assay [1], in assay [2] and in assay [3] were 1700 nM, 238 nM and more than 10 µM, respectively.
On the same counts, the results for `Cc1cc(-c2cc3ncccc3c(-c3ccn(C4(CC#N)CN(CC(F)(F)F)C4)n3)n2)n[nH]1` [Example 42, [3-{3-[7-(5-methyl-1H-pyrazol-3-yl)-1,6-naphthyridin-5-yl]-1H-pyrazol-1-yl}-1-(2,2,2-trifluoroethyl)azetidin-3-yl]acetonitrile] are 1610 nM, 36 nM and more than 10 µM.
On the same counts, the results for `Cn1nc(-c2cc3ncccc3c(-c3ccn([C@]4(CC#N)C[C@@H](C#N)C4)n3)n2)cc1CO` [Example 62, trans-3-(cyanomethyl)-3-(3-{7-[5-(hydroxymethyl)-1-methyl-1H-pyrazol-3-yl]-1,6-naphthyridin-5-yl}-1H-pyrazol-1-yl)cyclobutanecarbonitrile] are more than 10000 nM, 153 nM and more than 10 µM.
In the same order, the values of `Cn1nc(-c2cc3ncccc3c(-c3ccn([C@]4(CC#N)C[C@H](C#N)C4)n3)n2)cc1CO` [Example 63, cis-3-(cyanomethyl)-3-(3-{7-[5-(hydroxymethyl)-1-methyl-1H-pyrazol-3-yl]-1,6-naphthyridin-5-yl}-1H-pyrazol-1-yl)cyclobutanecarbonitrile] are 672 nM, 17 nM and 6.55 µM.
Turning to `Cn1nc(-c2cc3ncccc3c(-c3ccn([C@]4(CC#N)C[C@@H](C#N)C4)n3)n2)cc1N` [Example 65, trans-3-{3-[7-(5-amino-1-methyl-1H-pyrazol-3-yl)-1,6-naphthyridin-5-yl]-1H-pyrazol-1-yl}-3-(cyanomethyl)cyclobutanecarbonitrile], the IC50 in assay [1] was 1590 nM; in assay [2], 18 nM; in assay [3], more than 10 µM.
On the same counts, the results for `Cn1nc(-c2cc3ncccc3c(-c3ccn([C@]4(CC#N)C[C@H](C#N)C4)n3)n2)cc1N` [Example 66, cis-3-{3-[7-(5-amino-1-methyl-1H-pyrazol-3-yl)-1,6-naphthyridin-5-yl]-1H-pyrazol-1-yl}-3-(cyanomethyl)cyclobutanecarbonitrile] are 155 nM, 7 nM and 2.5 µM.
On the same counts, the results for `Cn1nccc1C1CC(CC#N)(n2ccc(-c3nc(-c4cn[nH]c4)cc4ncccc34)n2)C1` (stereo not drawn) [Example 86, [cis-3-(1-methyl-1H-pyrazol-5-yl)-1-{3-[7-(1H-pyrazol-4-yl)-1,6-naphthyridin-5-yl]-1H-pyrazol-1-yl}cyclobutyl]acetonitrile] are 2410 nM, 430 nM and more than 10 µM.
Consider `Cn1cc(-c2cc3ncccc3c(-c3ccn(C4(CC#N)CN(CC5CC5)C4)n3)n2)cn1` [Example 101, [1-(cyclopropylmethyl)-3-{3-[7-(1-methyl-1H-pyrazol-4-yl)-1,6-naphthyridin-5-yl]-1H-pyrazol-1-yl}azetidin-3-yl]acetonitrile], for which the figures for the IC50 in assay [1], in assay [2] and in assay [3] were 2040 nM, 73 nM and more than 10 µM, respectively.
On the same counts, the results for `CCn1cc(-c2cc3ncccc3c(-c3ccn(C4(CC#N)CC(C#N)C4)n3)n2)cn1` (stereo not drawn) [Example 112, cis-3-(cyanomethyl)-3-{3-[7-(1-ethyl-1H-pyrazol-4-yl)-1,6-naphthyridin-5-yl]-1H-pyrazol-1-yl}cyclobutanecarbonitrile] are 43 nM, 12 nM and 0.634 µM.
In the same order, the values of `CCn1cc(-c2cc3ncccc3c(-c3ccn([C@]4(CC#N)C[C@@H](C#N)C4)n3)n2)cn1` [Example 113, trans-3-(cyanomethyl)-3-{3-[7-(1-ethyl-1H-pyrazol-4-yl)-1,6-naphthyridin-5-yl]-1H-pyrazol-1-yl}cyclobutanecarbonitrile] are 409 nM, 22 nM and 8.97 µM.
In the same order, the values of `C=C(CO)n1cc(-c2cc3ncccc3c(-c3ccn(C4(CC#N)CN(S(C)(=O)=O)C4)n3)n2)cn1` [Example 131, [3-(3-{7-[1-(3-hydroxyprop-1-en-2-yl)-1H-pyrazol-4-yl]-1,6-naphthyridin-5-yl}-1H-pyrazol-1-yl)-1-(methylsulfonyl)azetidin-3-yl]acetonitrile] are 1630 nM, 251 nM and more than 10 µM.
Turning to `CS(=O)(=O)N1CC(CC#N)(n2ccc(-c3nc(-c4cnn(CC5(O)COC5)c4)cc4ncccc34)n2)C1` [Example 133, {3-[3-(7-{1-[(3-hydroxyoxetan-3-yl)methyl]-1H-pyrazol-4-yl}-1,6-naphthyridin-5-yl)-1H-pyrazol-1-yl]-1-(methylsulfonyl)azetidin-3-yl}acetonitrile], the values for the IC50 in assay [1], in assay [2] and in assay [3] were 1670 nM, 76 nM and more than 10 µM, respectively.
Consider `N#CCC1(n2ncc(-c3cc(-c4cccc(C(N)=O)c4)cc4ncccc34)n2)CC(C#N)C1` (stereo not drawn) [Example 431, 3-(5-{2-[cis-3-cyano-1-(cyanomethyl)cyclobutyl]-2H-1,2,3-triazol-4-yl}quinolin-7-yl)benzamide], for which the IC50 in assay [1] (JAK Caliper enzyme assay) was 572 nM; in assay [3] (JAK Caliper enzyme assay), more than 10 µM.
In the same order, the values of `N#CC[C@]1(n2ncc(-c3cc(-c4cccc(C(N)=O)c4)cc4ncccc34)n2)C[C@@H](C#N)C1` [Example 432, 3-(5-{2-[trans-3-cyano-1-(cyanomethyl)cyclobutyl]-2H-1,2,3-triazol-4-yl}quinolin-7-yl)benzamide] are 3900 nM and more than 10 µM.
